These results are taken from patent US20250171465A1, “AKT INHIBITORS” (Stablix, Inc., priority 2023, published 2025).

What all share (assay type): cell-based
In test [1] the test system is MDAMB468.1. The test can be described thus: Cell Titer Glo (CTG) proliferation assay, MDA-MB-468. The settings on record: Homo sapiens, MDA-MB-468; MDAMB468.1 cells, 72.0 hrs.; read-out: AVE CTG Proliferation MDAMB468.1 72.0 hrs. The method in brief:
(§1)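 After overnight seeding at 37 °C, 5% CO2, cells were exposed to compound for 3 days. Viability read by CellTiter-Glo luminescence after 30 min at room temperature.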
For orientation: In ATP-based viability assays light output follows the ATP content of the culture.

The subject of test [2] is KU1919.1. Briefly: Cell Titer Glo (CTG) proliferation assay, KU1919. The settings on record: Homo sapiens, KU-19-19; KU1919.1 cells, 72.0 hrs.; read-out: AVE CTG Proliferation KU1919.1 72.0 hrs. The method in brief:
as §1

In test [3] the test system is MDAMB231.1. The test can be described thus: Cell Titer Glo (CTG) proliferation assay, MDA-MB-231. As to conditions: Homo sapiens, MDA-MB-231; MDAMB231.1 cells, 72 hrs.; read-out: AVE CTG Proliferation MDAMB231.1 72 hrs. As for the experimental part: Seed cells in 40 μL of cell culture media into each well of 384-well cell culture plate, spin them at room temperature at 1,000 RPM for 1 minute and then transfer the plates into 37° C. 5% CO2 incubator overnight. Next day, treat cells with 40 nL of diluted compound and return to incubator. After compound treatment for 3 days, Add 30 μL of CellTiter-Glo reagent (Promega) into each well to be detected. Then place the plates at room temperature for 30 min followed by reading on EnVision. Inhibition activity calculated as % DMSO=100×(LumSample-Lum low control)/(Lum high control-Lum low control) where high control is from cells treated with 0.1% DMSO and Low control obtained from PBS only. Use XLFit (equation 201) to calculate IC50 (A+ ((B−A)/(1[…]((x/C)^D)))) where A: Bottom, B: Top, C: IC50, D: Slope.

Each structure is given as a SMILES string. pIC50: −log10 of the molar value.

As for `NC1(C(=O)N[C@@H](CCN2CCC(OC3CCN(C(=O)c4cccc(C5CCCN(C(=O)C6CC6)C5)c4)CC3)CC2)c2ccc(Cl)cc2)CCN(c2ncnc3[nH]ccc23)CC1` (stereo partly drawn) [Compound I-248], the pIC50 in test [1] is 5.00 to 5.30; in test [2] it was 5.30 to 6.00; in test [3], 5.00 to 5.30.

In the case of `NC1(C(=O)N[C@@H](CCN2CCC(OC3CCN(C(=O)c4cccc(C5CCCN(C(=O)CNC6CC6)C5)c4)CC3)CC2)c2ccc(Cl)cc2)CCN(c2ncnc3[nH]ccc23)CC1` (stereo partly drawn) [Compound I-252], the pIC50 in test [1] was 5.00 to 5.30; in test [2], 5.00 to 5.30; in test [3], under 5.00.

As to `NC1(C(=O)N[C@@H](CCN2CCN(C(=O)CN3CCC(OC4CCN(C(=O)[C@H](NC(=O)c5cccc(C6CCCN(C(=O)CNCc7ccc(F)cc7F)C6)c5)C5CCCCC5)CC4)CC3)CC2)c2ccc(Cl)cc2)CCN(c2ncnc3[nH]ccc23)CC1` (stereo partly drawn) [Compound I-258], the pIC50 is 5.30 to 6.00 in test [1], 6.00 to 6.30 in test [2] and 5.30 to 6.00 in test [3].

Turning to `NC1(C(=O)N[C@@H](CCN2CCN(C(=O)CN3CCC(OC4CCN(C(=O)[C@H](NC(=O)c5cccc(C6CCCN(C(=O)CNC7CC7)C6)c5)C5CCCCC5)CC4)CC3)CC2)c2ccc(Cl)cc2)CCN(c2ncnc3[nH]ccc23)CC1` (stereo partly drawn) [Compound I-259], the pIC50 in test [1], in test [2] and in test [3] was 5.30 to 6.00 in each case.

Regarding `CCc1cccc(-c2cc(F)c(C(=O)N3CCC(OC4CCN(CC(=O)NCCNC[C@@H](C(=O)N5CCN(c6ncnc7c6[C@H](C)C[C@H]7O)CC5)c5ccc(Cl)cc5)CC4)CC3)c(F)c2)c1` [Compound I-261], the pIC50 in test [1], in test [2] and in test [3] was 5.30 to 6.00 each time.

For the compound `CCc1cccc(-c2cc(F)c(C(=O)N3CCN(CC4CCN(CC(C(=O)N5CCN(c6ncnc7c6[C@H](C)C[C@H]7O)CC5)c5ccc(Cl)cc5)CC4)CC3)c(F)c2)c1` (stereo partly drawn) [Compound I-262], the values for the pIC50 in test [1], in test [2] and in test [3] were 5.30 to 6.00, 6.00 to 6.30 and 5.30 to 6.00, respectively.

With `C[C@@H]1C[C@@H](O)c2ncnc(N3CCN(C(=O)C(CN4CCC(CN5CCN(C(=O)[C@H](NC(=O)c6cccc([C@H]7CCCN(C(=O)C8CC8)C7)c6F)C6CCCCC6)CC5)CC4)c4ccc(Cl)cc4)CC3)c21` (stereo partly drawn) [Compound I-277], the pIC50 in test [1], in test [2] and in test [3] was over 6.30 each time.

With `C[C@@H]1C[C@@H](O)c2ncnc(N3CCN(C(=O)C(CN4CCC(CN5CCN(C(=O)[C@H](NC(=O)c6cccc([C@@H]7CCCN(C(=O)C8CC8)C7)c6F)C6CCCCC6)CC5)CC4)c4ccc(Cl)cc4)CC3)c21` (stereo partly drawn) [Compound I-278], the pIC50 in test [1] is 5.30 to 6.00; in test [2], 6.00 to 6.30; in test [3] it was 5.30 to 6.00.

On to `NC1(C(=O)N[C@@H](CCN2CCC(OC3CCN(C(=O)[C@H](NC(=O)c4cccc(C5CCCN(C(=O)CNCc6ccc(F)cc6F)C5)c4F)C4CCCCC4)CC3)CC2)c2ccc(Cl)cc2)CCN(c2ncnc3[nH]ccc23)CC1` (stereo partly drawn) [Compound I-279], for which the pIC50 is 5.30 to 6.00 in test [1], 6.00 to 6.30 in test [2] and 5.30 to 6.00 in test [3].

As to `NC1(C(=O)N[C@@H](CCN2CCC(OC3CCN(C(=O)c4c(F)cc(-c5ccccc5)cc4F)CC3)CC2)c2ccc(Cl)cc2)CCN(c2ncnc3[nH]ccc23)CC1` [Compound I-281], the pIC50 in test [1] is 5.30 to 6.00; in test [2] it was 5.30 to 6.00; in test [3] it was over 6.30.

Take `CC1(C(=O)N2CCCC(c3cccc(C(=O)N[C@@H](C(=O)N4CCC(OC5CCN(CC[C@H](NC(=O)C6(N)CCN(c7ncnc8[nH]ccc78)CC6)c6ccc(Cl)cc6)CC5)CC4)C4CCCCC4)c3F)C2)CC1` (stereo partly drawn) [Compound I-282]: the pIC50 in test [1], in test [2] and in test [3] was 5.30 to 6.00 throughout.

As for `NC1(C(=O)N[C@@H](CCN2CCC(OC3CCN(C(=O)[C@H](NC(=O)c4cccc(C5CCCN(C(=O)CNC6CC6)C5)c4F)C4CCCCC4)CC3)CC2)c2ccc(Cl)cc2)CCN(c2ncnc3[nH]ccc23)CC1` (stereo partly drawn) [Compound I-283], the pIC50 in test [1], in test [2] and in test [3] was 5.30 to 6.00 in each case.
